Experimental data reported in patent US20030129629A1, “Methods and compositions for the identification, assessment, prevention, and therapy of human cancers” (Millennium Pharmaceuticals, Inc., priority 2000, published 2003).
Read-outs that look alike come from different tables or passages of the source.

Key:
[1] = system: 60 cancer cell lines (NCI 60 cancer cell line series); test: NCI-DTP in vitro cancer screen, sulforhodamine B (SRB) growth inhibition, 48 hour exposure; format: cell-based, human
In short: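 NCI-DTP panel of 60 cancer cell lines plated day 0 at line-specific densities, exposed from day 1 to compound at 5 ten-fold-spaced doses in duplicate wells. After 48 h, cell mass stained with sulforhodamine B; −log GI50 derived from dose–response curves, averaged, and classed Low, Medium or High sensitivity.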

[2] = system: 60 cancer cell lines (NCI 60 cancer cell line series); conditions: cited from earlier work

Carboplatin
classification of cell line as Low(1), Medium(2), High(3) sensitivity to compound ([1]; Breast BT-549 CL5013): 2 | classification of cell line as Low(1), Medium(2), High(3) sensitivity to compound ([1]; Breast HS-578T CL5006): 2 | classification of cell line as Low(1), Medium(2), High(3) sensitivity to compound ([1]; Breast MCF7(I) CL5001): 2 | classification of cell line as Low(1), Medium(2), High(3) sensitivity to compound ([1]; Breast MCF7/ADRr CL5002): 2 | classification of cell line as Low(1), Medium(2), High(3) sensitivity to compound ([1]; Breast MDA-MB-231 CL5005): 1 | classification of cell line as Low(1), Medium(2), High(3) sensitivity to compound ([1]; Breast MDA-MB-435 CL5011): 1 | classification of cell line as Low(1), Medium(2), High(3) sensitivity to compound ([1]; Breast MDA-N CL5012): 2 | classification of cell line as Low(1), Medium(2), High(3) sensitivity to compound ([1]; Breast T-47D CL5014): 1 | classification of cell line as Low(1), Medium(2), High(3) sensitivity to compound ([1]; CNS SF-268 CL12014): 3 | classification of cell line as Low(1), Medium(2), High(3) sensitivity to compound ([1]; CNS SF-295 CL12015): 3 | classification of cell line as Low(1), Medium(2), High(3) sensitivity to compound ([1]; CNS SF-539 CL12016): 2 | classification of cell line as Low(1), Medium(2), High(3) sensitivity to compound ([1]; CNS SNB-19 CL12002): 2 | classification of cell line as Low(1), Medium(2), High(3) sensitivity to compound ([1]; CNS SNB-75(I) CL12005): 2 | classification of cell line as Low(1), Medium(2), High(3) sensitivity to compound ([1]; CNS U251(I) CL12009): 2 | classification of cell line as Low(1), Medium(2), High(3) sensitivity to compound ([1]; Colon COLO-250 CL4010): 1 | classification of cell line as Low(1), Medium(2), High(3) sensitivity to compound ([1]; Colon HCC-2998 CL4002): 1 | classification of cell line as Low(1), Medium(2), High(3) sensitivity to compound ([1]; Colon HCT-15 CL4015): 1 | classification of cell line as Low(1), Medium(2), High(3) sensitivity to compound ([1]; Colon HCT-116 CL4003): 2 | classification of cell line as Low(1), Medium(2), High(3) sensitivity to compound ([1]; Colon HT29(I) CL4001): 1 | classification of cell line as Low(1), Medium(2), High(3) sensitivity to compound ([1]; Colon KM12 CL4017): 1 | classification of cell line as Low(1), Medium(2), High(3) sensitivity to compound ([1]; Colon SW-620 CL4009): 2 | classification of cell line as Low(1), Medium(2), High(3) sensitivity to compound ([1]; Leukemia CCRF-CEM(I) CL7003): 2 | classification of cell line as Low(1), Medium(2), High(3) sensitivity to compound ([1]; Leukemia HL-60(I) CL7008): 3 | classification of cell line as Low(1), Medium(2), High(3) sensitivity to compound ([1]; Leukemia K562(I) CL7005): 2 | classification of cell line as Low(1), Medium(2), High(3) sensitivity to compound ([1]; Leukemia MOLT-4 CL7006): 2 | classification of cell line as Low(1), Medium(2), High(3) sensitivity to compound ([1]; Leukemia RPMI-8226(I) CL7010): 2 | classification of cell line as Low(1), Medium(2), High(3) sensitivity to compound ([1]; Leukemia SR CL7019): 2 | classification of cell line as Low(1), Medium(2), High(3) sensitivity to compound ([1]; Melanoma LOX IMVI CL10001): 2 | classification of cell line as Low(1), Medium(2), High(3) sensitivity to compound ([1]; Melanoma M14 CL10014): 2 | classification of cell line as Low(1), Medium(2), High(3) sensitivity to compound ([1]; Melanoma MALME-3M CL10002): 2 | classification of cell line as Low(1), Medium(2), High(3) sensitivity to compound ([1]; Melanoma SK-MEL-2 CL10005): 2 | classification of cell line as Low(1), Medium(2), High(3) sensitivity to compound ([1]; Melanoma SK-MEL-28 CL10008): 2 | sensitivity classification Low(1)/Medium(2)/High(3) ([1]; NSCLC NCI-H23(I) CL1001): 3 | sensitivity classification Low(1)/Medium(2)/High(3) ([1]; NSCLC NCI-H332M CL1017): 1 | sensitivity classification Low(1)/Medium(2)/High(3) ([1]; NSCLC NCI-H460 CL1021): 3 | sensitivity classification Low(1)/Medium(2)/High(3) ([1]; NSCLC NCI-H522 CL1003): 3 | sensitivity classification Low(1)/Medium(2)/High(3) ([1]; Ovarian IGROV1 CL6010): 3 | sensitivity classification Low(1)/Medium(2)/High(3) ([1]; Ovarian OVCAR-3 CL6001): 2 | sensitivity classification Low(1)/Medium(2)/High(3) ([1]; Ovarian OVCAR-4 CL6002): 2 | sensitivity classification Low(1)/Medium(2)/High(3) ([1]; Ovarian OVCAR-5 CL6003): 1 | sensitivity classification Low(1)/Medium(2)/High(3) ([1]; Ovarian OVCAR-8 CL6005): 2 | sensitivity classification Low(1)/Medium(2)/High(3) ([1]; Ovarian SK-OV-3 CL6011): 2 | sensitivity classification Low(1)/Medium(2)/High(3) ([1]; Prostate DU-145 CL11003): 2 | sensitivity classification Low(1)/Medium(2)/High(3) ([1]; Prostate PC-3(I) CL11001): 1 | sensitivity classification Low(1)/Medium(2)/High(3) ([1]; Renal 786-0 CL9018): 2 | sensitivity classification Low(1)/Medium(2)/High(3) ([1]; Renal A498 CL9013): 1 | sensitivity classification Low(1)/Medium(2)/High(3) ([1]; Renal ACHN CL9023): 2 | sensitivity classification Low(1)/Medium(2)/High(3) ([1]; Renal CAKI-1 CL9015): 2 | sensitivity classification Low(1)/Medium(2)/High(3) ([1]; Renal RXF-393 CL9016): 2 | sensitivity classification Low(1)/Medium(2)/High(3) ([1]; Renal SN12C CL9008): 2 | sensitivity classification Low(1)/Medium(2)/High(3) ([1]; Renal TK10 CL9024): 1 | sensitivity classification Low(1)/Medium(2)/High(3) ([1]; Renal UO-31 CL9004): 2 | −Log (GI50) ([2]; Breast BT-549 CL5013): 3.7 | −Log (GI50) ([2]; Breast HS-578T CL5006): 3.8 | −Log (GI50) ([2]; Breast MCF7(I) CL5001): 3.9 | −Log (GI50) ([2]; Breast MCF7/ADRr CL5002): 3.8 | −Log (GI50) ([2]; Breast MDA-MB-231 CL5005): 3.6 | −Log (GI50) ([2]; Breast MDA-MB-435 CL5011): 3.7 | −Log (GI50) ([2]; Breast MDA-N CL5012): 3.8 | −Log (GI50) ([2]; Breast T-47D CL5014): 3.6 | −Log (GI50) ([2]; CNS SF-268 CL12014): 4.3 | −Log (GI50) ([2]; CNS SF-295 CL12015): 4.2 | −Log (GI50) ([2]; CNS SF-539 CL12016): 4.1 | −Log (GI50) ([2]; CNS SNB-19 CL12002): 3.8 | −Log (GI50) ([2]; CNS SNB-75(I) CL12005): 4.0 | −Log (GI50) ([2]; CNS U251(I) CL12009): 4.2 | −Log (GI50) ([2]; Colon COLO-250 CL4010): 3.6 | −Log (GI50) ([2]; Colon HCC-2998 CL4002): 3.7 | −Log (GI50) ([2]; Colon HCT-15 CL4015): 3.6 | −Log (GI50) ([2]; Colon HCT-116 CL4003): 3.7 | −Log (GI50) ([2]; Colon HT29(I) CL4001): 3.7 | −Log (GI50) ([2]; Colon KM12 CL4017): 3.7 | −Log (GI50) ([2]; Colon SW-620 CL4009): 3.8 | −Log (GI50) ([2]; Leukemia CCRF-CEM(I) CL7003): 4.2 | −Log (GI50) ([2]; Leukemia HL-60(I) CL7008): 4.5 | −Log (GI50) ([2]; Leukemia K562(I) CL7005): 3.8 | −Log (GI50) ([2]; Leukemia MOLT-4 CL7006): 4.1 | −Log (GI50) ([2]; Leukemia RPMI-8226(I) CL7010): 3.8 | −Log (GI50) ([2]; Leukemia SR CL7019): 4.1 | −Log (GI50) ([2]; Melanoma LOX IMVI CL10001): 4.2 | −Log (GI50) ([2]; Melanoma M14 CL10014): 4.0 | −Log (GI50) ([2]; Melanoma MALME-3M CL10002): 4.1 | −Log (GI50) ([2]; Melanoma SK-MEL-2 CL10005): 3.8 | −Log (GI50) ([2]; Melanoma SK-MEL-5 CL10007): 4.0 | −Log (GI50) ([2]; Melanoma SK-MEL-28 CL10008): 3.8 | −Log (GI50) ([2]; Melanoma UACC-62 CL10020): 4.4 | −Log (GI50) ([2]; Melanoma UACC-257 CL10021): 3.9 | −Log (GI50) ([2]; NSCLC A549/ATCC CL1004): 4.0 | −Log (GI50) ([2]; NSCLC EKVX CL1008): 3.7 | −Log (GI50) ([2]; NSCLC HOP-62 CL1026): 3.9 | −Log (GI50) ([2]; NSCLC HOP-92 CL1029): 4.0 | −Log (GI50) ([2]; NSCLC NCI-H23(I) CL1001): 4.3 | −Log (GI50) ([2]; NSCLC NCI-H226 CL1013): 3.9 | −Log (GI50) ([2]; NSCLC NCI-H332M CL1017): 3.7 | −Log (GI50) ([2]; NSCLC NCI-H460 CL1021): 4.5 | −Log (GI50) ([2]; NSCLC NCI-H522 CL1003): 4.3 | −Log (GI50) ([2]; Ovarian IGROV1 CL6010): 4.3 | −Log (GI50) ([2]; Ovarian OVCAR-3 CL6001): 4.2 | −Log (GI50) ([2]; Ovarian OVCAR-4 CL6002): 4.1 | −Log (GI50) ([2]; Ovarian OVCAR-5 CL6003): 3.6 | −Log (GI50) ([2]; Ovarian OVCAR-8 CL6005): 3.7 | −Log (GI50) ([2]; Ovarian SK-OV-3 CL6011): 3.7 | −Log (GI50) ([2]; Prostate DU-145 CL11003): 3.9 | −Log (GI50) ([2]; Prostate PC-3(I) CL11001): 3.6 | −Log (GI50) ([2]; Renal 786-0 CL9018): 4.0 | −Log (GI50) ([2]; Renal A498 CL9013): 3.7 | −Log (GI50) ([2]; Renal ACHN CL9023): 4.1 | −Log (GI50) ([2]; Renal CAKI-1 CL9015): 4.1 | −Log (GI50) ([2]; Renal RXF-393 CL9016): 4.2 | −Log (GI50) ([2]; Renal SN12C CL9008): 3.8 | −Log (GI50) ([2]; Renal TK10 CL9024): 3.7 | −Log (GI50) ([2]; Renal UO-31 CL9004): 3.8
